Measurements reported in patent US20250154134A1, “COMPOUND AS FAK INHIBITOR AND USE THEREOF” (WIGEN BIOMEDICINE TECHNOLOGY (SHANGHAI) CO., LTD., priority 2022, published 2025).

Experiments:
[1] = system: PC3 cells; test: PC3 cell proliferation, 2D activity assay (Cell Titer-Lumi, 72 h); assay type: cell-based, human
Description: (§1) 2D activity assay: 1200 PC3 cells were seeded in a 96-well plate. After overnight adherence culture, A compound serially diluted was added. […] The growth of the cells was evaluated, and the IC50 of the compound inhibiting cell growth was calculated. 3D activity assay: PC3 cells were seeded in a 96-well plate at 1200 cells/well, and 3D culture was performed. 14 days after a compound serially diluted was added, the growth of the cells was measured. The inhibition percentage and IC50 of the compound were calculated compared to the DMSO control group.

[2] = molecular target: FAK recombinant protein (Homo sapiens (Human), UniProt Q05397); test: Inhibitory activity against FAK enzyme (HTRF, TK substrate); assay type: biochemical
FAK recombinant protein, sequence (Q05397 whole entry): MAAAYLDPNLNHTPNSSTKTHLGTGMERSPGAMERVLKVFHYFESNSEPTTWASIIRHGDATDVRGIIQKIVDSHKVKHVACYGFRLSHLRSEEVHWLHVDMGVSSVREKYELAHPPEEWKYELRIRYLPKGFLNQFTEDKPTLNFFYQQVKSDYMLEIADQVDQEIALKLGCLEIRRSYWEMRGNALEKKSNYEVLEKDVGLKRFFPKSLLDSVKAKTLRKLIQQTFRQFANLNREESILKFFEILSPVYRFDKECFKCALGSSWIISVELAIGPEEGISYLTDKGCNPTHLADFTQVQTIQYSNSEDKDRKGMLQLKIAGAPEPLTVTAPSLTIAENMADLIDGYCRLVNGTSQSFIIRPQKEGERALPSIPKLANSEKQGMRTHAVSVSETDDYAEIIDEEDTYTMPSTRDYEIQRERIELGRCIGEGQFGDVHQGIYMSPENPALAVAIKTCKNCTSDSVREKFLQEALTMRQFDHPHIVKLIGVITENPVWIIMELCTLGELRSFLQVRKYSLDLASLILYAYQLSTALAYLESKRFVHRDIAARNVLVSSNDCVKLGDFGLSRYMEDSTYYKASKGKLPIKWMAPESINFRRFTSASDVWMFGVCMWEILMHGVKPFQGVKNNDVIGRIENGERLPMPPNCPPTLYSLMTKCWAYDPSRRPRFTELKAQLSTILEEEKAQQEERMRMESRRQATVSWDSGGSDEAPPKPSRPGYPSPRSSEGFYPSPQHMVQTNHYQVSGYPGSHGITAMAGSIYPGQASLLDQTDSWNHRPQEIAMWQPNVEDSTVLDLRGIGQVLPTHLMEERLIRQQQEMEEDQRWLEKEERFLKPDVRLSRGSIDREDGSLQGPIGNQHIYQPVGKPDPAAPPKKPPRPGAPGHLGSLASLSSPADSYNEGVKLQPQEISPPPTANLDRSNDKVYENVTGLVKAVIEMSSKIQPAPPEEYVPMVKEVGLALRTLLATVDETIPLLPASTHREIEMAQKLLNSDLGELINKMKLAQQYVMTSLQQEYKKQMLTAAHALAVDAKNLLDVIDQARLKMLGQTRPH
Description: A compound serially diluted with DMSO was mixed with a FAK recombinant protein. After the mixture was left to stand at room temperature for 10 min, a biotin-labeled TK substrate (TK) and ATP were added. […] The inhibition percentage and IC50 of the compound were calculated compared to the DMSO control group.

[3] = system: PC3 cells; test: PC3 cell proliferation, 3D activity assay (3D culture, 14 days); assay type: cell-based, human; settings: read-out: 3D inhibitory activity against PC3 cells IC50
Description: as §1

[4] = Homo sapiens, PC-3, read-out: 2D inhibitory activity against PC3 cells IC50
[5] = read-out: 2D inhibitory activity against PC3 cells IC50

| SMILES | IC50 [1, 4] [nM] | IC50 [2] [nM] | IC50 ([3]; Homo sapiens, PC-3, 336 h) [nM] | IC50 [1, 5] [nM] | IC50 [3] [nM] |
| --- | --- | --- | --- | --- | --- |
| CNC(=O)c1ccc(Nc2ncc(C(F)(F)F)c(Oc3cccc4c3C(=O)N(C)C43CC3)n2)c(OC)c1 [Compound 2] | > 2000 | < 20 | 5 to 50 | – | – |
| COc1cc(C(=O)NC2CCN(C)CC2)c(Cl)cc1Nc1ncc(C(F)(F)F)c(Oc2cccc3c2C(=O)N(C)C32CC2)n1 [Compound 5] | > 2000 | < 20 | < 5 | – | – |
| COc1cc(C(=O)NC2CC3(CCN(C)CC3)C2)ccc1Nc1ncc(C(F)(F)F)c(Oc2cccc3c2C(=O)N(C)C32CC2)n1 [Compound 9] | > 2000 | < 20 | < 5 | – | – |
| COc1cc(C(=O)NC2CCC23CCN(C)CC3)ccc1Nc1ncc(C(F)(F)F)c(Oc2cccc3c2C(=O)N(C)C32CC2)n1 (stereo not shown) [Compound 13] | > 2000 | < 20 | < 5 | – | – |
| COc1cc(C(=O)NC2CCC3(CC2)CCN3C)c(F)cc1Nc1ncc(C(F)(F)F)c(Oc2cccc3c2C(=O)N(C)C32CC2)n1 (stereo not shown) [Compound 14] | > 2000 | < 20 | < 5 | – | – |
| COc1cc(C(=O)NC2COC3(CCN(C)CC3)C2)c(F)cc1Nc1ncc(C(F)(F)F)c(Oc2cccc3c2C(=O)N(C)C32CC2)n1 (stereo not shown) [Compound 16] | > 2000 | < 20 | < 5 | – | – |
| COc1cc(C(=O)NC2COC3(CCN(C)CC3)C2)ccc1Nc1ncc(C(F)(F)F)c(Oc2cccc3c2C(=O)N(C)C32CC2)n1 (stereo not shown) [Compound 17] | > 2000 | < 20 | < 5 | – | – |
| COc1cc(C(=O)NC2CCC3(CC2)CCN(C)C3)ccc1Nc1ncc(C(F)(F)F)c(Oc2cccc3c2C(=O)N(C)C32CC2)n1 (stereo not shown) [Compound 21] | > 2000 | < 20 | < 5 | – | – |
| COc1cc(C(=O)NC2CCC3(CC2)CCN(C)CC3)c(F)cc1Nc1ncc(C(F)(F)F)c(Oc2cccc3c2C(=O)N(C)C32CC2)n1 [Compound 22] | > 2000 | < 20 | 5 to 50 | – | – |
| COc1cc(C(=O)NC2CCC3(CC2)CCN(C)CC3)ccc1Nc1ncc(C(F)(F)F)c(Oc2cccc3c2C(=O)N(C)C32CC2)n1 [Compound 23] | > 2000 | < 20 | 5 to 50 | – | – |
| COc1cc(C(=O)NC2CCC3(CCN(C)C3)C2)c(F)cc1Nc1ncc(C(F)(F)F)c(Oc2cccc3c2C(=O)N(C)C32CC2)n1 (stereo not shown) [Compound 24] | > 2000 | < 20 | 5 to 50 | – | – |
| COc1cc(C(=O)NC2COC3(CCN(C)C3)C2)c(F)cc1Nc1ncc(C(F)(F)F)c(Oc2cccc3c2C(=O)N(C)C32CC2)n1 (stereo not shown) [Compound 26] | > 2000 | < 20 | < 5 | – | – |
| COc1cc(C(=O)NC2CCN3CCN(C)C3C2)ccc1Nc1ncc(C(F)(F)F)c(Oc2cccc3c2C(=O)N(C)C32CC2)n1 (stereo not shown) [Compound 28] | > 2000 | < 20 | 5 to 50 | – | – |
| COc1cc(C(=O)NC2CCN3CCOC3C2)ccc1Nc1ncc(C(F)(F)F)c(Oc2cccc3c2C(=O)N(C)C32CC2)n1 (stereo not shown) [Compound 29] | > 2000 | < 20 | < 5 | – | – |
| COc1cc(C(=O)NC2CCN3CCN=C3C2)ccc1Nc1ncc(C(F)(F)F)c(Oc2cccc3c2C(=O)N(C)C32CC2)n1 (stereo not shown) [Compound 30] | > 2000 | < 20 | 5 to 50 | – | – |
| COc1cc(C(=O)NC2CCn3ccnc3C2)ccc1Nc1ncc(C(F)(F)F)c(Oc2cccc3c2C(=O)N(C)C32CC2)n1 (stereo not shown) [Compound 31] | > 2000 | < 20 | 5 to 50 | – | – |
| COc1cc(C(=O)NC2CCn3cnnc3C2)ccc1Nc1ncc(C(F)(F)F)c(Oc2cccc3c2C(=O)N(C)C32CC2)n1 (stereo not shown) [Compound 32] | > 2000 | < 20 | 5 to 50 | – | – |
| COc1cc(C(=O)NC2CCN(C)CC2F)ccc1Nc1ncc(C(F)(F)F)c(Oc2cccc3c2C(=O)N(C)C32CC2)n1 (stereo not shown) [Compound 33] | > 2000 | < 20 | < 5 | – | – |
| COc1cc(C(=O)NC2CCN(C)CC2OC)ccc1Nc1ncc(C(F)(F)F)c(Oc2cccc3c2C(=O)N(C)C32CC2)n1 (stereo not shown) [Compound 34] | > 2000 | < 20 | < 5 | – | – |
| COc1cc(C(=O)NC2CCNCC2)ccc1Nc1ncc(C(F)(F)F)c(Oc2cccc3c2C(=O)N(C)C32CC2)n1 [Compound 35, 3-Methoxy-4-((4-((2′-methyl-3′-oxospiro[cyclopropane-1,1′-isoindolin]-4′-yl)oxy)-5-(trifluoromethyl)pyrimidin-2-yl)amino)-N-(piperidin-4-yl)benzamide] | > 2000 | – | < 5 | – | – |
| COc1cc(C(=O)NC2CCN(CC(N)=O)CC2)ccc1Nc1ncc(C(F)(F)F)c(Oc2cccc3c2C(=O)N(C)C32CC2)n1 [Compound 39] | > 2000 | < 20 | < 5 | – | – |
| [2H]C([2H])([2H])N1CCC(NC(=O)c2cc(OC)c(Nc3ncc(C(F)(F)F)c(Oc4cccc5c4C(=O)N(C)C54CC4)n3)cc2F)CC1 [Compound 40] | > 2000 | < 20 | < 5 | – | – |
| CCN1CCC(NC(=O)c2cc(OC)c(Nc3ncc(C(F)(F)F)c(Oc4cccc5c4C(=O)N(C)C54CC4)n3)cc2F)CC1 [Compound 41] | > 2000 | < 20 | < 5 | – | – |
| [2H]C([2H])([2H])N1CCC(C)(NC(=O)c2ccc(Nc3ncc(C(F)(F)F)c(Oc4cccc5c4C(=O)N(C)C54CC4)n3)c(OC)c2)CC1 [Compound 42] | > 2000 | < 20 | < 5 | – | – |
| [2H]C([2H])([2H])N1CCC2(CC1)CC(NC(=O)c1ccc(Nc3ncc(C(F)(F)F)c(Oc4cccc5c4C(=O)N(C)C54CC4)n3)c(OC)c1)C2 [Compound 45] | > 2000 | < 20 | < 5 | – | – |
| COc1cc(C(=O)NC2(C)CCN(C)CC2)ccc1Nc1ncc(Cl)c(Oc2cccc3c2C(=O)N(C)C32CC2)n1 [Compound 118] | > 2000 | – | 5 to 50 | – | – |
| COc1cc(N2CC3CCN(C)C3C2)ccc1Nc1ncc(Cl)c(Oc2cccc3c2C(=O)N(C)C32CC2)n1 (stereo not shown) [Compound 171] | – | – | – | > 2000 | 5 to 50 |
| COc1cc(C(=O)NC2CCN(C)CC2)c(F)cc1Nc1ncc(Cl)c(Oc2cccc3c2C(=O)N(C)C32CCCC2)n1 [Compound 209] | > 2000 | – | > 50 | – | – |

Continued, values first:

| IC50 [1, 4] [nM] | IC50 [2] [nM] | IC50 ([3]; Homo sapiens, PC-3, 336 h) [nM] | IC50 [1, 5] [nM] | IC50 [3] [nM] | SMILES |
| --- | --- | --- | --- | --- | --- |
| > 2000 | < 20 | < 5 | – | – | COc1cc(C(=O)NC2(C)CCN(C)CC2)c(F)cc1Nc1ncc(C(F)(F)F)c(Oc2cccc3c2C(=O)N(C)C32CC2)n1 [Compound 7] |
| > 2000 | < 20 | 5 to 50 | – | – | COc1cc(C(=O)NC2CCC3(CC2)CN(C)C3)c(F)cc1Nc1ncc(C(F)(F)F)c(Oc2cccc3c2C(=O)N(C)C32CC2)n1 [Compound 10] |
| > 2000 | < 20 | 5 to 50 | – | – | COc1cc(C(=O)NC2CCC3(CC2)CN(C)C3)ccc1Nc1ncc(C(F)(F)F)c(Oc2cccc3c2C(=O)N(C)C32CC2)n1 [Compound 11] |
| > 2000 | < 20 | < 5 | – | – | COc1cc(C(=O)NC2CCC23CCN(C)CC3)c(F)cc1Nc1ncc(C(F)(F)F)c(Oc2cccc3c2C(=O)N(C)C32CC2)n1 (stereo not shown) [Compound 12] |
| > 2000 | < 20 | < 5 | – | – | COc1cc(C(=O)NC2CCC3(CC2)CCN3C)ccc1Nc1ncc(C(F)(F)F)c(Oc2cccc3c2C(=O)N(C)C32CC2)n1 (stereo not shown) [Compound 15] |
| > 2000 | < 20 | 5 to 50 | – | – | COc1cc(C(=O)NC2CCC3(CCN(C)CC3)C2)c(F)cc1Nc1ncc(C(F)(F)F)c(Oc2cccc3c2C(=O)N(C)C32CC2)n1 (stereo not shown) [Compound 18] |
| > 2000 | < 20 | 5 to 50 | – | – | COc1cc(C(=O)NC2CCC3(CCN(C)CC3)C2)ccc1Nc1ncc(C(F)(F)F)c(Oc2cccc3c2C(=O)N(C)C32CC2)n1 (stereo not shown) [Compound 19] |
| > 2000 | < 20 | < 5 | – | – | COc1cc(C(=O)NC2CCC3(CC2)CCN(C)C3)c(F)cc1Nc1ncc(C(F)(F)F)c(Oc2cccc3c2C(=O)N(C)C32CC2)n1 (stereo not shown) [Compound 20] |
| > 2000 | < 20 | < 5 | – | – | COc1cc(C(=O)NC2CCC3(CCN(C)C3)C2)ccc1Nc1ncc(C(F)(F)F)c(Oc2cccc3c2C(=O)N(C)C32CC2)n1 (stereo not shown) [Compound 25] |
| > 2000 | < 20 | < 5 | – | – | CCN1CCC(NC(=O)c2ccc(Nc3ncc(C(F)(F)F)c(Oc4cccc5c4C(=O)N(C)C54CC4)n3)c(OC)c2)CC1 [Compound 37] |
| > 2000 | < 20 | 5 to 50 | – | – | COc1cc(C(=O)NC2CCN(CS(C)(=O)=O)CC2)ccc1Nc1ncc(C(F)(F)F)c(Oc2cccc3c2C(=O)N(C)C32CC2)n1 [Compound 38] |
| > 2000 | < 20 | < 5 | – | – | [2H]C([2H])([2H])N1CCC(C)(NC(=O)c2cc(OC)c(Nc3ncc(C(F)(F)F)c(Oc4cccc5c4C(=O)N(C)C54CC4)n3)cc2F)CC1 [Compound 43] |
| > 2000 | < 20 | 5 to 50 | – | – | COc1cc(C(=O)NC2CC3(CCNCC3)C2)ccc1Nc1ncc(C(F)(F)F)c(Oc2cccc3c2C(=O)N(C)C32CC2)n1 [Compound 44] |
| – | – | – | > 2000 | 5 to 50 | COc1cc(C(=O)N2CCC3(CCN(C)C3)C2)ccc1Nc1ncc(C(F)(F)F)c(Oc2cccc3c2C(=O)N(C)C32CC2)n1 (stereo not shown) [Compound 58] |
